Measurements published in patent publication US20060111289A1, “Compositions and methods of using Alpha-fetoprotein growth inhibitory peptides” (Serometrix, LLC,, priority 2004, published 2006).

Assays:
[1] = tested on: LNCaP human prostate tumor cells; experiment: Whole-cell voltage clamp of LNCaP cells; assay type: cell-based; settings: 10 μM
Protocol: LNCaP human prostate tumor cells were cultured on 5×5 mm plastic coverslips and were transferred to a microperfusion chamber on the stage of an inverted microscope. Whole-cell voltage clamp was accomplished with an Axopatch 200B (Axon Instr. Co., Union City, Calif.) using ruptured patches. Borosilicate glass capillaries (1.2 mm OD, 0.68 ID, type EN-I, Garner Glass Co., Claremont, Calif.) were used to fabricate patch pipettes (3-8 MΩ in the bath solution) with a Brown-Flaming horizontal micropipette puller (P-87, Sutter Instruments, San Rafael, Calif.). Patch-pipette tips were heat-polished prior to use. A micromanipulator (Narishige) fixed to the microscope positioned the pipettes. Electrode capacitance and access resistance were compensated prior to measurements. All experiments will be performed at room temperature (20-22° C.). The standard extracellular salt solution for ion currents contained (in mM): 150 NaCl, 6 KCl, 1.5 CaCl2, 1 MgCl2, 10 HEPES, 10 glucose, and pH adjusted to 7.4 with 1 N NaOH. […] Electrophysiological recordings were procured and analyzed using PClamp8 software (Axon Instr. Co, Union City, Calif.) and the WinASCD software (Guy Droogmans, Katholieke Universiteit; Leuven, B E). All results were recorded on computer hard drive or on digital audio tape (DAT). […]

[2] = tested on: 6WI-1 mammary tumor cells; experiment: Mouse ascites mammary tumor assay (6WI-1 isograft); assay type: in vivo; settings: for Suppression of accumulation of cells and ascites fluid volume (anticancer activity): 1.0 μg peptide per day for 11 days
Protocol: The growth suppression of the mammary ascites tumor by AFP peptides and its fragments P149a, P149b and P149c, and control peptides were determined in non-estrogen dependent assays which measured tumor cell growth and ascites accumulation of 6WI-1 mammary transplanted NYLAR/nya mice. […] Tumor cell inocula included doses of 0.3, 1.0, and 3.0×10^6 cells which produced host mortality at 12-14 days which was lethal in 100% of the animals. Following peptide dose titration studies, mice inoculated with 6WI-1 mammary cells were injected with a previously-determined optimal dose of 1.0 μg peptide per day or saline for 11 days. On day 12 following inoculation, the total accumulated ascites fluid volume and tumor cells in the peritoneal cavity of each animal were harvested and the cell count determined.
Inoculation of mice with all three cell doses led to an increase in body weight from 25 g (day 0) to approximately […] by day 12, due to the accumulation of tumor cells and ascites fluid in the intraperitoneal cavity. An average cell count in accumulated ascites fluid on day 12 was greater than 10^8 cells/ml with a total ascites volume approximating 20 mls. Tumor cell proliferation in this model has been reported to correlate with the volume of ascites fluid accumulated.
The 6WI-1 mouse mammary tumor studies involving peptide and non-peptide treatment were further compared by histopathological analysis performed on hematoxylin/eosin stained tissue sections.

human platelets = experiment: Platelet aggregation in human platelet-rich plasma; assay type: cell-based; design: % Inhibition Of Activity: Platelet Agg. ADP / % Inhibition Of Activity: Platelet Agg. AA / % Inhibition Of Activity: Platelet Agg. Coll: concentration or dose not given beside the values
Protocol: FIG. 9 presents exemplary data showing platelet aggregation modulation using 0.5 ml of normal human platelet-rich plasma (PRP) with varying amounts of P149 or P 149b using 2.5×10^6 platelets per reaction vessel.
FIG. 10 presents exemplary data showing platelet aggregation activation by arachidonic acid (AA) and collagen using P149-treated platelet suspensions • Panel A1: AA alone; • Panel A2: AA followed by epinephine (EPI) and EPI alone using P149b; • Panel A3: CD62P flow cytometry fluorescence quenching by P149; • Panel B1: collagen alone and collagen+P149; • Panel B2: collagen alone; collagen+P149a showing aggregation diminution.
GIP-derived peptide fragments and/or subfragments have been assayed for platelet aggregation by measuring light transmissions with an aggregometer using a stirred human platelet suspension. Kinlough-Rathbone et al., In: Platelet Aggregation in Measurements of Platelet Function, Eds. Harker L A, Zimmerman T S., Churchill Livingstone, London. pp. 64-87 (1983); and Whittle et al., “Specificity between the anti-aggregatory actions of prostacyclin, prostaglandin Eland D2 on platelets” In: Mechanisms of stimulus—response coupling in platelets, Eds. V. V. K., MacIntyre D E, Scully M F., New York and London: Plenum Press. pp. 109-115 (1985).
The ability of GIP and its fragments were individually examined for aggregation inhibition using citrated human platelet-rich plasma (PRP). The peptides were freshly dissolved in 0.15 M NaCl containing 2.5×10^6 platelets/ml. […]

[3] = tested on: human kidney tumor cell line
[4] = tested on: immature mouse uterine growth; experiment: E2-activated immature mouse uterine growth assay; assay type: in vivo; design: % Inhibition Of Activity: Uterine Growth: concentration or dose not given beside the values; settings: mouse, in vivo
Protocol: FIG. 3 presents exemplary data showing the growth suppressive activities of the oligomeric forms of P149, cyclic versus linear, are depicted in various in vitro and in vivo models. Biological activity was determined by three growth-dependent bioassays, namely; • Panel-A and A1) an immature rodent uterine bioassay; • Panel-B and B 1) an in vitro MCF-7 foci assay; • Panel-C and C1) an in vitro tumor cell cytostatic assessment. […] See text for details. Scrambled peptide=P327. […]

MCF-7 cells = experiment: Estrogen-dependent MCF-7 foci formation assay; assay type: cell-based, human; design: % Inhibition Of Activity: MCF-7 foci formation: concentration or dose not given beside the values
Description: Mizejewski et al., “Alpha-fetoprotein derived synthetic peptides: assay of an estrogen-modifying regulatory segment” Mol Cell Endocrinol 118:15-23 (1996). The P149 peptide inhibited the formation of tumor cell foci formed as a result of the accumulation of breast cancer cells which clump together due to loss of contact inhibition.

Estrogen fetotoxicity = experiment: Estrogen fetotoxicity; design: concentration or dose not given beside the values; settings: in vivo
[5] = tested on: 6WI-1 mammary tumor cells; experiment: 6WI-1 mammary tumor in 15-day old mouse pups (6 day assay); assay type: in vivo; design: % Inhibition Of Activity: 6WI-1 Pup Ascites: concentration or dose not given beside the values; settings: mouse pups
Description: As an alternative model of the 6WI-I mammary tumor in adult mice, an inocula of 1×10^6 tumor cells injected into 15-day old mouse pups provided a 6 day rather than a 12 day assay and replicated the same tumor growth suppression by GIP.

[6] = tested on: immature mouse uterine growth; experiment: E2-activated immature mouse uterine growth assay; assay type: in vivo; design: concentration or dose not given beside the values
[7] = tested on: MCF-7 and 6WI-1 tumor cells; experiment: Tumor cell adhesion to ECM proteins in microtiter plates; assay type: cell-based, human, murine
Protocol: FIG. 8 presents exemplary data showing the inhibition of P149 in the cellular adhesion of cancer cells to extracellular matrix (ECM) proteins for both human MCF-7 breast cancer cells and for murine 6WI-1 ascites-adapted mammary tumor cells. The cellular adhesion assay was performed in 96-well microtiter plates (Nunc Company, Denmark, catalog #263339) and the wells were pre-coated with 100 microliters of each of the above-mentioned ECM proteins for 24 hours as previously determined. After adding tumor cells, the plates were then incubated at 37° C. for various times; while 6WI-1 cells usually required only 2-4 hours incubation for adhesion; MCF-7 cells required 24 hours for attachment following trypsinization. For both cell lines, the cell culture media contained 5% calf serum to ensure cell attachment. The plates were washed twice with Hank's Saline, fixed in 0.5 mL of 37% formaldehyde, stained with crystal violet and read at […] on a microplate reader. Inset: Using a CyQUANT® stain kit, (Hoechst Corp., Germany) the plates were first exposed to a freeze/thaw cycle at −70° C. for 24 hours and 37° C. for 10 minutes. CyQUANT® buffer solution (150 microliters) was added to each well, and the cell adhesion was measured by fluorescence spectroscopy and quantitated using an ImageQuant® plate scanner (Fluorimager 595, Molecular Dynamics, Sunnyvale, Calif.).
This attachment of GIP was a slightly weaker adhesion matrix than was gelatin, chondroitin sulfate, and poly-lysine which approximated 30-35%. Using P149, the optimal amount of peptide required to inhibit tumor cell adhesion was determined by absorbing soluble peptide (1.0 pg to 100 μg) to the walls of microtiter plates. A constant number of MCF-7 tumor cells (i.e., for example, 1×10^5) were then added to the microtiter well and adhesion quantitated by fluorescence. […] The quantitation of MCF-7 and 6WI-1 cell adhesion in the presence of peptide versus peptide-free media was then determined on ECM-coated microtiter plates using 3 μg GIP/well as a competitive inhibitor. The P149 peptide was added to the wells immediately after the cells were dispensed and then the mixture was incubated as described. The AFP peptide was capable of cell adhesion inhibition in most of the ECM proteins in both tumor cell lines. Inhibition of mouse and human tumor cell adhesion was somewhat equivalent using collagen IV, fibrinogen, fibronectin, and thrombospondin. […] Thus, the GIP was found capable of eliciting different attachment inhibitions dependent on the type of ECM protein coating the wall of the microtiter plate and also the tumor cell type involved.

[8] = 1 × 10^6 tumor cells I.P., daily injections for eleven days, N = 5
[9] = 6WI-1 mouse mammary ascites tumor

In the case of “GINHLPSDAVGTAIEVMPCLRDGKLCIGAEHIEL (listed as Homo sapiens) [P327]”, the Whole-cell membrane current [1] is reported as “no effect on membrane current”, the “Suppression of accumulation of cells and ascites fluid volume (anticancer activity)” value [2] is reported as “totally lacked anticancer activity” and the “Metastatic histopathological findings: Abdominal Muscle” value [2, 8] is reported as “Focal tumor infiltrate”. For the same sequence, the “Metastatic histopathological findings: Gross Findings” value [2, 8] was “Presence of tumor”, the “Metastatic histopathological findings: Kidney” value [2, 8] was “No infiltrate” and the “Metastatic histopathological findings: Liver” value [2, 8] was “No infiltrate”. For the same sequence, the “Metastatic histopathological findings: Pancreas” value [2, 8] was “Distinct presence of”, the “Metastatic histopathological findings: Retro-peritoneal mesentery and fat” value [2, 8] was “Extensive tumor infiltrate” and the “Metastatic histopathological findings: Spleen” value [2, 8] was “No infiltrate”. The “Metastatic histopathological findings: Uterus + Ovary” value [2, 8] was “Tumor encased organ” and the “Metastatic tumor infiltration, histopathology summary” value ([2]; mouse, in vivo) was “high-to-moderate tumor infiltrates”.
In the case of “MTPVNPGV (listed as Homo sapiens) [P149c]”, the “Inhibition of platelet aggregations induced by ADP and collagen” value (human platelets) is reported as “no significant inhibition”, the “% Inhibition Of Activity: Platelet Agg. ADP” value (human platelets; ADP-induced) is reported as 0% and the “% Inhibition Of Activity: Platelet Agg. AA” value (human platelets; arachidonic acid-induced) is reported as 0%. For the same sequence, the “% Inhibition Of Activity: Platelet Agg. Coll” value (human platelets; collagen-induced) was 0%, the Platelet aggregation inhibition (human platelets; inducer not specified) was “lack inhibitory capabilities” and the “Inhibition (%) Of Platelet Aggregation, Adenosine Diphosphate (ADP) 2.5 μM” value (human platelets; peptide inhibitors 30 & 100 μM) was “No effect”. For the same sequence, the “Inhibition (%) Of Platelet Aggregation, Arachidonic Acid (AA) 0.3 mM” value (human platelets; peptide inhibitors 30 & 100 μM) was “No effect”, the “Inhibition (%) Of Platelet Aggregation, Collagen (COLL) 2 μg/ml” value (human platelets; peptide inhibitors 30 & 100 μM) was “No effect” and the “Inhibition (%) Of Platelet Aggregation, Epinephrine” value (human platelets; peptide inhibitors 30 & 100 μM) was “No effect”. For the same sequence, the “% Inhibition Of Activity: Kidney tumor growth” value [3] was 19%, the “% Inhibition Of Activity: Uterine Growth” value [4] was 42% and the “% Inhibition Of Activity: MCF-7 foci formation” value (MCF-7 cells) was 45%. The “Suppression of accumulation of cells and ascites fluid volume (anticancer activity)” value [2] was “significantly suppressed”, the “% Inhibition Of Activity: 6WI-1 Acites Volume” value [2, 9] was 39% and the “% Inhibition Of Activity: 6WI-1 Body Weight” value [2, 9] was 44%. The “% Inhibition Of Activity: 6WI-1 Cell Prol” value [2, 9] was 45%, the “% Inhibition Of Activity: Estrogen Fetotoxicty” value (Estrogen fetotoxicity) was 37% and the “% Inhibition Of Activity: 6WI-1 Pup Ascites” value [5] was 29%. The “% Inhibition Of Activity: Uterine Growth, Enzymatic Fragments” value [6] was 44% and the “% Inhibition Of Activity: Cell Adhesion” value [7] was 56%.
